Measurements from patent publication US10308629B2, “1H-pyrrol-3-amines” (BAYER PHARMA AKTIENGESELLSCHAFT, priority 2015, dated 2019).

Biological target: (recombinant) catalytic domain of human Bub1 (amino acids 704-1085) (Homo sapiens (Human), UniProt O43683)
Assay: Bub1 kinase assay (TR-FRET)
Assay type: biochemical
Conditions: ATP 10 μM, peptide substrate 1 μM, 60 min at 22° C., read-out: Inhibition of Bub1 kinase IC50
From the text: Bub1-inhibitory activities of compounds described in the present invention were quantified using a time-resolved fluorescence energy transfer (TR-FRET) kinase assay which measures phosphorylation of the synthetic peptide Biotin-Ahx-VLLPKKSFAEPG (SEQ ID No. 1) (C-terminus in amide form), purchased from e.g. Biosyntan (Berlin, Germany) by the (recombinant) catalytic domain of human Bub1 (amino acids 704-1085), expressed in Hi5 insect cells with an N-terminal His6-tag and purified by affinity-(Ni-NTA) and size exclusion chromatography.
In a typical assay 11 different concentrations of each compound (0.1 nM, 0.33 nM, 1.1 nM, 3.8 nM, 13 nM, 44 nM, 0.15 μM, 0.51 μM, 1.7 μM, 5.9 μM and 20 μM) were tested in duplicate within the same microtiter plate. To this end, 100-fold concentrated compound solutions (in DMSO) were previously prepared by serial dilution (1:3.4) of 2 mM stocks in a clear low volume 384-well source microtiter plate (Greiner Bio-One, Frickenhausen, Germany), from which 50 nl of compounds were transferred into a black low volume test microtiter plate from the same supplier. Subsequently, 2 μL of Bub1 (the final concentration of Bub1 was adjusted depending on the activity of the enzyme lot in order to be within the linear dynamic range of the assay: typically ˜200 ng/mL were used) in aqueous assay buffer [50 mM Tris/HCl pH 7.5, 10 mM magnesium chloride (MgCl2), 200 mM potassium chloride (KCl), 1.0 mM dithiothreitol (DTT), 0.1 mM sodium ortho-vanadate, 1% (v/v) glycerol, 0.01% (w/v) bovine serum albumine (BSA), 0.005% (v/v) Trition X-100 (Sigma), 1× Complete EDTA-free protease inhibitor mixture (Roche)] were added to the compounds in the test plate and the mixture was incubated for 15 min at 22° C. to allow pre-equilibration of the putative enzyme-inhibitor complexes before the start of the kinase reaction, which was initiated by the addition of 3 μL 1.67-fold concentrated solution (in assay buffer) of adenosine-tri-phosphate (ATP, 10 μM final concentration) and peptide substrate (1 μM final concentration). The resulting mixture (5 μL final volume) was incubated at 22° C. during 60 min. and the reaction w as stopped by the addition of 5 μL of an aqueous EDTA-solution (50 mM EDTA, in 100 mM HEPES pH 7.5 and 0.2% (w/v) bovine serum albumin) which also contained the TR-FRET detection reagents (0.2 μM streptavidin-XL665 [Cisbio Bioassays, Codolet, France] and 1 nM anti-phosho-Serine antibody [Merck Millipore, cat. #35-002] and 0.4 nM LANCE EU-W1024 labeled anti-mouse IgG antibody [Perkin-Elmer, product no. AD0077, alternatively a Terbium-cryptate-labeled anti-mouse IgG antibody from Cisbio Bioassays can be used]). The stopped reaction mixture was further incubated 1 h at 22° C. in order to allow the formation of complexes between peptides and detection reagents. Subsequently, the amount of product was evaluated by measurement of the resonance energy transfer from the Eu-chelate-antibody complex recognizing the Phosphoserine residue to the streptavidin-XL665 bound to the biotin moiety of the peptide. To this end, the fluorescence emissions at 620 nm and 665 nm after excitation at 330-350 nm were measured in a TR-FRET plate reader, e.g. a Rubystar or Pherastar (both from BMG Labtechnologies, Offenburg, Germany) or a Viewlux (Perkin-Elmer) and the ratio of the emissions (665 nm/622 nm) was taken as indicator for the amount of phosphorylated substrate. The data were normalised using two sets of control wells for high−(=enzyme reaction without inhibitor=0%=Minimum inhibition) and low−(=all assay components without enzyme=100%=Maximum inhibition) Bub1 activity. IC50 values were calculated by fitting the normalized inhibition data to a 4-parameter logistic equation (Minimum, Maximum, IC50, Hill; Y=Max+(Min−Max)/(1+(X/IC50)Hill)).

(recombinant) catalytic domain of human Bub1 (amino acids 704-1085), sequence (O43683 704-1085): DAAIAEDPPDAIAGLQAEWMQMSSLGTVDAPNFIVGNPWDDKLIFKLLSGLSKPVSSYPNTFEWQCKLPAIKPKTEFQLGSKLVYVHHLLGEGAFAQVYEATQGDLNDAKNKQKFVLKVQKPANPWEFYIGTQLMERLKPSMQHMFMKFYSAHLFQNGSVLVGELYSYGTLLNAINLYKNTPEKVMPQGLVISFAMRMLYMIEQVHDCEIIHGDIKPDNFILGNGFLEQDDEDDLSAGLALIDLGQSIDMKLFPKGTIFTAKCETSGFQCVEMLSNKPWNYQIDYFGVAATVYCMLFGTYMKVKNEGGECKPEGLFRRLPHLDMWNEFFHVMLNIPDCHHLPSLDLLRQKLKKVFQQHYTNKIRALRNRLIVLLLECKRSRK

CC1(C)[C@@H]2C[C@H]1C(=O)c1c2[nH]c(-c2ccncc2F)c1Nc1ccccc1 (relative stereo) [Example 10, rel-(5R,7S)-2-(3-Fluoropyridin-4-yl)-6,6-dimethyl-3-(phenylamino)-1,5,6,7-tetrahydro-4H-5,7-methanoindol-4-one]
IC50: 35 nM

CC1(C)[C@@H]2C[C@H]1C(=O)c1c2[nH]c(-c2ccncc2)c1Nc1ccccc1 (relative stereo) [Example 1, rel-(5R,7S)-6,6-Dimethyl-3-(phenylamino)-2-(pyridin-4-yl)-1,5,6,7-tetrahydro-4H-5,7-methanoindol-4-one]
IC50: 146 nM

(5R,7S or 5S,7R)-2-(2-Aminopyridin-4-yl)-6,6-dimethyl-3-(phenylamino)-1,5,6,7-tetrahydro-4H-5,7-methanoindol-4-one [Example 3]
IC50: 648 nM

C[C@@]12Cc3[nH]c(-c4ccnc(NS(C)(=O)=O)c4)c(Nc4ccccc4)c3C(=O)[C@@H]1C2 (relative stereo) [Example 27, N-{4-[rel-(4aR,5aR)-3-Anilino-5a-methyl-4-oxo-1,4,4a,5,5a,6-hexahydrocyclopropa[f]indol-2-yl]pyridin-2-yl}methanesulfonamide]
IC50: 630 nM

O=c1ccccc2[nH]c(-c3ccncc3)c(Nc3ccccc3)c12 [Example 21, 3-(Phenylamino)-2-(pyridin-4-yl)cyclohepta[b]pyrrol-4(1H)-one]
IC50: 8 nM

C[C@@]12C[C@@H]1C(=O)c1c([nH]c(-c3ccnc(NC(=O)C4(F)CC4)c3)c1Nc1ccccc1)C2=O (relative stereo) [Example 29, 1-Fluoro-N-4-[rel-(4aS,5aR)-5a-methyl-4,6-dioxo-3-(phenylamino)-1,4,4a,5,5a,6-hexahydrocyclopropa[f]indol-2-yl]pyridin-2-ylcyclopropanecarboxamide]
IC50: 133 nM

CN1C[C@H]2C(=O)c3c([nH]c(-c4ccncc4)c3Nc3ccccc3)C[C@H]2C1=O (relative stereo) [Example 11, rel-(4aR,7aS)-6-Methyl-3-(phenylamino)-2-(pyridin-4-yl)-1,4a,5,6,7a,8-hexahydropyrrolo[3,4-f]indole-4,7-dione]
IC50: 19 nM

N-4-[[(7S) or (7R)]-7-Methyl-4-oxo-3-(phenylamino)-1,4,5,6,7,8-hexahydrocyclohepta[b]pyrrol-2-yl]pyridin-2-ylacetamide [Example 38]
IC50: 27 nM

1-Fluoro-N-4-[[(4aR,5aR) or (4aS,5aS)]-5a-methyl-4-oxo-3-(phenylamino)-1,4,4a,5,5a,6-hexahydrocyclopropa[f]indol-2-yl]pyridin-2-ylcyclopropanecarboxamide [Example 31]
IC50: 52 nM

(4aR,5aR or 4aS,5aS)-5a-Methyl-3-(phenylamino)-2-(pyridin-4-yl)-4a,5,5a,6-tetrahydrocyclopropa[f]indol-4(1H)-one [Example 17]
IC50: 5 nM

COc1cc(C(=O)Nc2cc(-c3[nH]c4c(c3Nc3ccccc3)C(=O)[C@H]3C[C@@]3(C)C4=O)ccn2)ccc1F (relative stereo) [Example 35, 4-Fluoro-3-methoxy-N-4-[rel-(4aS,5aR)-5a-methyl-4,6-dioxo-3-(phenylamino)-1,4,4a,5,5a,6-hexahydrocyclopropa[f]indol-2-yl]pyridin-2-ylbenzamide]
IC50: 71 nM

(1S,2S)-2-Fluoro-N-4-[[(4aR,5aR) or (4aS,5aS)]-5a-methyl-4-oxo-3-(phenylamino)-1,4,4a,5,5a,6-hexahydrocyclopropa[f]indol-2-yl]pyridin-2-ylcyclopropanecarboxamide [Example 37]
IC50: 11 nM

N-4-[[(4aS,5aS) or (4aR,5aR)]-5a-Methyl-4-oxo-3-(phenylamino)-1,4,4a,5,5a,6-hexahydrocyclopropa[f]indol-2-yl]pyridin-2-yl-1H-pyrazole-3-carboxamide [Example 44]
IC50: 5 nM

N-{4-[[(4aS,5aS) or (4aR,5aR)]-3-anilino-5a-methyl-4-oxo-1,4,4a,5,5a,6-hexahydrocyclopropa[f]indol-2-yl]pyridin-2-yl}-2,6-difluorobenzamide [Example 47]
IC50: 7 nM
